# What was measured:
# ABUTH (Velvetleaf) [1] = experiment: Postemergence herbicidal evaluation; type: in vivo, Abutilon theophrasti
# In short: (§1)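 Herbicidal effect was judged by eye on a 0–9 scale covering stand, vigor, deformity, size and chlorosis, compared with controls, four to five weeks after seedlings about two weeks old were sprayed (40 psi, ~0.0156–0.500 kg/ha).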
# [2] = test system: CHEAL (Lambsquarters, Common); experiment: Postemergence herbicidal evaluation; type: in vivo, Chenopodium album
# In short: as §1
# [3] = test system: IPOHE (Morningglory, Ivyleaf); experiment: Postemergence herbicidal evaluation; type: in vivo, Ipomoea hederacea
# In short: as §1
# ECHCG (Barnyardgrass) [4] = experiment: Postemergence herbicidal evaluation; type: in vivo, Echinochloa crus-galli
# In short: as §1
# SETVI (Foxtail, Green) = experiment: Postemergence herbicidal evaluation; type: in vivo, Setaria viridis
# In short: as §1
# ORYSAT (Rice, Tebonnet) = experiment: Postemergence herbicidal evaluation; type: in vivo, Oryza sativa, (L.) Tebonnet
# In short: as §1
# ZEAMX (Corn, Field) [5] = experiment: Postemergence herbicidal evaluation; type: in vivo, Zea mays
# In short: as §1
# ABUTH (Velvetleaf) [6] = experiment: Preemergence herbicidal evaluation; type: in vivo, Abutilon theophrasti; conditions: rated 4-5 weeks after treatment
# In short: (§2)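 Herbicidal effect scored visually, 0-9, at 4 to 5 weeks against a control; compound applied preemergence by aqueous acetone spray to seeded soil at about 0.0156 to 0.500 kg/ha.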
# CASOB (Sicklepod) = experiment: Preemergence herbicidal evaluation; type: in vivo, Cassia obtusifolia; conditions: rated 4-5 weeks after treatment
# In short: as §2
# [7] = test system: CHEAL (Lambsquarters, Common); experiment: Preemergence herbicidal evaluation; type: in vivo, Chenopodium album; conditions: rated 4-5 weeks after treatment
# In short: as §2
# [8] = test system: IPOHE (Morningglory, Ivyleaf); experiment: Preemergence herbicidal evaluation; type: in vivo, Ipomoea hederacea; conditions: rated 4-5 weeks after treatment
# In short: as §2
# ECHCG (Barnyardgrass) [9] = experiment: Preemergence herbicidal evaluation; type: in vivo, Echinochloa crus-galli; conditions: rated 4-5 weeks after treatment
# In short: as §2
# [10] = test system: GLXMAW (Soybean, Williams); experiment: Preemergence herbicidal evaluation; type: in vivo, Glycine max, (L.) Merr. cv Williams; conditions: rated 4-5 weeks after treatment
# In short: as §2
# [11] = test system: TRZAWR (Wheat, Winter, cv Riband); experiment: Preemergence herbicidal evaluation; type: in vivo, Triticum aestivum; conditions: rated 4-5 weeks after treatment
# In short: as §2
# ZEAMX (Corn, Field) [12] = experiment: Preemergence herbicidal evaluation; type: in vivo, Zea mays; conditions: rated 4-5 weeks after treatment
# In short: as §2
# CYPIR (Rice Flatsedge) = experiment: Postemergence weed control under flooded paddy conditions; type: in vivo, Cyperus iria; conditions: postemergence weeds, 3-4 weeks after treatment
# In short: (§3)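 Flood-water application, about 0.0313–0.500 kg/ha a.i. in aqueous/acetone 50/50 v/v; water depth 1.5–3 cm throughout. Weeds 3–5 cm, rice 1.5–2.5 leaf. Greenhouse; 0–9 visual rating vs control at 3–4 wk.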
# CYPSE (Flatsedge) = experiment: as above; type: in vivo, Cyperus serotinus; conditions: postemergence weeds, 3-4 weeks after treatment
# In short: as §3
structure (smiles),measurement,setting,value
"Cn1c(C(F)(F)F)cc(=O)n(-c2cc(N=C3NC(=O)CS3)c(Cl)cc2F)c1=O [Compound 39, 3-{4-Chloro-2-fluoro-5-[(4-oxo-2-thiazolidinylidene)amino]phenyl}-1-methyl-6-(trifluoromethyl)-2,4(1H,3H)-pyrimidinedione]",Postemergence herbicidal rating ABUTH,ABUTH (Velvetleaf) [1]; Rate 0.0158 kg/ha,0.0
same,Postemergence herbicidal rating ABUTH,ABUTH (Velvetleaf) [1]; Rate 0.0315 kg/ha,9.0
same,Postemergence herbicidal rating ABUTH,ABUTH (Velvetleaf) [1]; Rate 0.0630 kg/ha,9.0
same,Postemergence herbicidal rating CHEAL,[2]; Rate 0.0158 kg/ha,1.0
same,Postemergence herbicidal rating CHEAL,[2]; Rate 0.0315 kg/ha,1.0
same,Postemergence herbicidal rating CHEAL,[2]; Rate 0.0630 kg/ha,1.0
same,Postemergence herbicidal rating IPOHE,[3]; Rate 0.0158 kg/ha,2.0
same,Postemergence herbicidal rating IPOHE,[3]; Rate 0.0315 kg/ha,7.0
same,Postemergence herbicidal rating IPOHE,[3]; Rate 0.0630 kg/ha,7.0
same,Postemergence herbicidal rating ECHCG,ECHCG (Barnyardgrass) [4]; Rate 0.0158 kg/ha,0.0
same,Postemergence herbicidal rating ECHCG,ECHCG (Barnyardgrass) [4]; Rate 0.0315 kg/ha,0.0
same,Postemergence herbicidal rating ECHCG,ECHCG (Barnyardgrass) [4]; Rate 0.0630 kg/ha,0.0
same,Postemergence herbicidal rating SETVI,"SETVI (Foxtail, Green); Rate 0.0158 kg/ha",0.0
same,Postemergence herbicidal rating SETVI,"SETVI (Foxtail, Green); Rate 0.0315 kg/ha",0.0
same,Postemergence herbicidal rating SETVI,"SETVI (Foxtail, Green); Rate 0.0630 kg/ha",0.0
same,Postemergence herbicidal rating ORYSAT,"ORYSAT (Rice, Tebonnet); Rate 0.0158 kg/ha",1.5
same,Postemergence herbicidal rating ORYSAT,"ORYSAT (Rice, Tebonnet); Rate 0.0315 kg/ha",1.5
same,Postemergence herbicidal rating ORYSAT,"ORYSAT (Rice, Tebonnet); Rate 0.0630 kg/ha",2.0
same,Postemergence herbicidal rating ZEAMX,"ZEAMX (Corn, Field) [5]; Rate 0.0158 kg/ha",3.0
same,Postemergence herbicidal rating ZEAMX,"ZEAMX (Corn, Field) [5]; Rate 0.0315 kg/ha",3.0
same,Postemergence herbicidal rating ZEAMX,"ZEAMX (Corn, Field) [5]; Rate 0.0630 kg/ha",3.0
same,Preemergence herbicidal rating ABUTH,ABUTH (Velvetleaf) [6]; rate 0.0156 kg/ha,0.0
same,Preemergence herbicidal rating ABUTH,ABUTH (Velvetleaf) [6]; rate 0.0313 kg/ha,0.0
same,Preemergence herbicidal rating ABUTH,ABUTH (Velvetleaf) [6]; rate 0.0625 kg/ha,1.0
same,Preemergence herbicidal rating ABUTH,ABUTH (Velvetleaf) [6]; rate 0.1250 kg/ha,9.0
same,Preemergence herbicidal rating ABUTH,ABUTH (Velvetleaf) [6]; rate 0.2500 kg/ha,9.0
same,Preemergence herbicidal rating CASOB,CASOB (Sicklepod); rate 0.0313 kg/ha,0.0
same,Preemergence herbicidal rating CASOB,CASOB (Sicklepod); rate 0.0625 kg/ha,0.0
same,Preemergence herbicidal rating CASOB,CASOB (Sicklepod); rate 0.1250 kg/ha,2.0
same,Preemergence herbicidal rating CASOB,CASOB (Sicklepod); rate 0.2500 kg/ha,1.0
same,Preemergence herbicidal rating CHEAL,[7]; rate 0.0156 kg/ha,1.0
same,Preemergence herbicidal rating CHEAL,[7]; rate 0.0313 kg/ha,0.0
same,Preemergence herbicidal rating CHEAL,[7]; rate 0.0625 kg/ha,7.0
same,Preemergence herbicidal rating CHEAL,[7]; rate 0.1250 kg/ha,7.0
same,Preemergence herbicidal rating CHEAL,[7]; rate 0.2500 kg/ha,9.0
same,Preemergence herbicidal rating IPOHE,[8]; rate 0.0156 kg/ha,0.0
same,Preemergence herbicidal rating IPOHE,[8]; rate 0.0313 kg/ha,0.0
same,Preemergence herbicidal rating IPOHE,[8]; rate 0.0625 kg/ha,1.0
same,Preemergence herbicidal rating IPOHE,[8]; rate 0.1250 kg/ha,1.0
same,Preemergence herbicidal rating IPOHE,[8]; rate 0.2500 kg/ha,9.0
same,Preemergence herbicidal rating ECHCG,ECHCG (Barnyardgrass) [9]; rate 0.0156 kg/ha,0.0
same,Preemergence herbicidal rating ECHCG,ECHCG (Barnyardgrass) [9]; rate 0.0313 kg/ha,0.0
same,Preemergence herbicidal rating ECHCG,ECHCG (Barnyardgrass) [9]; rate 0.0625 kg/ha,0.0
same,Preemergence herbicidal rating ECHCG,ECHCG (Barnyardgrass) [9]; rate 0.1250 kg/ha,0.0
same,Preemergence herbicidal rating ECHCG,ECHCG (Barnyardgrass) [9]; rate 0.2500 kg/ha,0.0
same,Preemergence herbicidal rating GLXMAW,[10]; rate 0.0156 kg/ha,0.0
same,Preemergence herbicidal rating GLXMAW,[10]; rate 0.0313 kg/ha,0.0
same,Preemergence herbicidal rating GLXMAW,[10]; rate 0.0625 kg/ha,0.0
same,Preemergence herbicidal rating GLXMAW,[10]; rate 0.1250 kg/ha,5.0
same,Preemergence herbicidal rating GLXMAW,[10]; rate 0.2500 kg/ha,7.0
same,Preemergence herbicidal rating TRZAWR,[11]; rate 0.0156 kg/ha,0.0
same,Preemergence herbicidal rating TRZAWR,[11]; rate 0.0313 kg/ha,0.0
same,Preemergence herbicidal rating TRZAWR,[11]; rate 0.0625 kg/ha,0.0
same,Preemergence herbicidal rating TRZAWR,[11]; rate 0.1250 kg/ha,1.0
same,Preemergence herbicidal rating TRZAWR,[11]; rate 0.2500 kg/ha,2.0
same,Preemergence herbicidal rating ZEAMX,"ZEAMX (Corn, Field) [12]; rate 0.0156 kg/ha",0.0
same,Preemergence herbicidal rating ZEAMX,"ZEAMX (Corn, Field) [12]; rate 0.0313 kg/ha",0.0
same,Preemergence herbicidal rating ZEAMX,"ZEAMX (Corn, Field) [12]; rate 0.0625 kg/ha",0.0
same,Preemergence herbicidal rating ZEAMX,"ZEAMX (Corn, Field) [12]; rate 0.1250 kg/ha",2.0
same,Preemergence herbicidal rating ZEAMX,"ZEAMX (Corn, Field) [12]; rate 0.2500 kg/ha",5.0
same,Herbicidal rating CYPIR,CYPIR (Rice Flatsedge); rate 0.0313 kg/ha,0.0
same,Herbicidal rating CYPIR,CYPIR (Rice Flatsedge); rate 0.0625 kg/ha,0.0
same,Herbicidal rating CYPIR,CYPIR (Rice Flatsedge); rate 0.1250 kg/ha,0.0
same,Herbicidal rating CYPIR,CYPIR (Rice Flatsedge); rate 0.2500 kg/ha,0.0
same,Herbicidal rating CYPSE,CYPSE (Flatsedge); rate 0.0313 kg/ha,0.0
same,Herbicidal rating CYPSE,CYPSE (Flatsedge); rate 0.0625 kg/ha,0.0
same,Herbicidal rating CYPSE,CYPSE (Flatsedge); rate 0.1250 kg/ha,0.0
same,Herbicidal rating CYPSE,CYPSE (Flatsedge); rate 0.2500 kg/ha,0.0

# From patent publication US20020137929A1, “1 - (3-heterocyclylphenyl) isothiourea, -isourea, -guanidine and -amidine herbicidal agents” (Intellectual Property Department, BASF Aktiengesellschaft, priority 1998, published 2002)
